# Earlier results as cited in patent US20050065131A1, “2-alkylidene-19-nor-vitamin D derivatives for enhancement of peak bone mass in adolescence” (Pfizer Inc, priority 2003, published 2005).
# System: Bone Calcium Mobilization
# Settings: at both dose levels (130 and 260 pmol/day), 7 days
compound,measurement,value
"C=C1[C@H](O)CC(=C/C=C2\CCC[C@]3(C)[C@@H]([C@H](C)CCCC(C)(C)O)CC[C@@H]23)C[C@H]1O [2-Methylene-19-Nor-1,25-(OH)2D3, 1α,25-dihydroxy-2-methylene-19-nor-vitamin D3]","bone calcium mobilization, result in words",extremely strong
